These results are taken from ChEMBL document CHEMBL5390306, “Development of Conformationally Restricted Negamycin Derivatives for Potent Readthrough Activity” (ACS Med Chem Lett, 2023).

What all share (format): functional, cell-based
In assay [1] the test system is Premature termination codon. Briefly: Readthrough activity against UGA type PTC 5'-TTGAAAGAGCAATAAAATGGCTTCAAC-3' from DMD mdx mouse overexpressed in COS7 cells assessed as ratio of luciferase activity to beta-galactosidase activity at 200 uM incubated for 48 hrs by Dual luciferase reporter assay.
Assay [2] relates to Premature termination codon. Briefly: Readthrough activity against UGA type PTC 5'-TTGAAAGAGCAATAAAATGGCTTCAAC-3' from DMD mdx mouse overexpressed in COS7 cells assessed as ratio of luciferase activity to beta-galactosidase activity incubated for 48 hrs by Dual luciferase reporter assay. The following applies: dose 6.25-200 µM. In general terms: In a reporter assay the amount or activity of a reporter protein is the signal.

Assay [3] deals with Premature termination codon. Briefly: Readthrough activity against UAG type PTC 5'-TTGAAAGAGCAATAAAATGGCTTCAAC-3' from DMD mdx mouse overexpressed in COS7 cells assessed as ratio of luciferase activity to beta-galactosidase activity at 200 uM incubated for 48 hrs by Dual luciferase reporter assay.
The subject of assay [4] is Premature termination codon. Kind of assay: Readthrough activity against UAA type PTC 5'-TTGAAAGAGCAATAAAATGGCTTCAAC-3' from DMD mdx mouse overexpressed in COS7 cells assessed as ratio of luciferase activity to beta-galactosidase activity at 200 uM incubated for 48 hrs by Dual luciferase reporter assay.
In assay [5] the test system is Premature termination codon. Briefly: Readthrough activity against UGA type PTC 5'-TTGAAAGAGCAATAAAATGGCTTCAAC-3' from DMD mdx mouse overexpressed in COS7 cells assessed as readthrough efficiency at 200 uM incubated for 48 hrs by Dual luciferase reporter assay relative to control.
Assay [6] deals with Premature termination codon. Kind of assay: Potency index, ratio of G418 to test compound for readthrough activity against UGA type PTC 5'-TTGAAAGAGCAATAAAATGGCTTCAAC-3' from DMD mdx mouse overexpressed in COS7 cells at 200 uM incubated for 48 hrs by Dual luciferase reporter assay.
The test system of assay [7] is Premature termination codon. Briefly: Potency index, ratio of 2,6-diaminopurine to test compound for readthrough activity against UGA type PTC 5'-TTGAAAGAGCAATAAAATGGCTTCAAC-3' from DMD mdx mouse overexpressed in COS7 cells at 200 uM incubated for 48 hrs by Dual luciferase reporter assay.
For assay [8], the system named is Premature termination codon. Briefly: Readthrough activity against UGA type PTC 5'-TTGAAAGAGCAATAAAATGGCTTCAAC-3' from DMD mdx mouse overexpressed in COS7 cells assessed as ratio of luciferase activity to beta-galactosidase activity at 6.25 to 200 uM incubated for 48 hrs by Dual luciferase reporter assay. The following applies: dose 6.25-200 µM.

Activity calls are given as the source filed them. The calls are words filed in the database; no cut-off is given here.

As to `CN(CC(=O)O)NC(=O)C[C@@H](NC(=O)[C@@H](N)CCCCCCCO)[C@H]1C[C@H]1CN`, in assay [1], the Ratio came out at 3.25.
The same measure, in the same setting: under `CC(C)C[C@@H](N)C(=O)N[C@H](CC(=O)NN(C)CC(=O)O)[C@H]1C[C@H]1CN` stands 1.01.
Still for that read-out and setting: under `CCCCCC/C=C/C[C@H](N)C(=O)N[C@H](CC(=O)NN(C)CC(=O)O)[C@H]1C[C@H]1CN` stands 16.9.
For `CN(CC(=O)O)NC(=O)C[C@@H](N)[C@H]1C[C@H]1CN`, in assay [2], the Activity entry is “Dose-Dependent Effect”. In addition, the results for the Ratio in assay [3], in assay [1] and in assay [4] were 6.24, 8.36 and 1.3, respectively.
On to `CCCCCCCCC[C@H](N)C(=O)N[C@H](CC(=O)NN(C)CC(=O)O)[C@H]1C[C@H]1CN`, for which the Activity entry in assay [2] is “Dose-Dependent Effect”; in assay [5], 2.88%. Besides, the fold change (FC) in assay [6] and in assay [7] was 2 each time. Besides, the Ratio is 11.4 in assay [3], 23 in assay [1] and 1.81 in assay [4].
As for `CC(C)C[C@H](N)C(=O)N[C@H](CC(=O)NN(C)CC(=O)O)[C@H]1C[C@H]1CN`, in assay [1], the Ratio turned out to be 3.08.
Regarding `CCCCCCCCC[C@H](N)C(=O)N[C@@H](CCCN)CC(=O)NN(C)CC(=O)O`, the Ratio in assay [1] was 19.5.
On the same count and under the same terms, under `COCCCCCCC[C@H](N)C(=O)N[C@H](CC(=O)NN(C)CC(=O)O)[C@H]1C[C@H]1CN` stands 1.94.
As to `CN(CC(=O)O)NC(=O)C[C@@H](N)CCCN`, the Ratio in assay [3] came to 1.95; in assay [1], 2.69; in assay [4] it was 1.22.
`CCCC(=O)NCCCC[C@H](N)C(=O)N[C@H](CC(=O)NN(C)CC(=O)O)[C@H]1C[C@H]1CN`: the Ratio in assay [1] worked out at 2.05.
As for `CN[C@@H]1[C@@H](O)[C@@H](O[C@@H]2[C@@H](O)[C@H](O[C@H]3O[C@H]([C@@H](C)O)[C@@H](O)[C@H](O)[C@H]3N)[C@@H](N)C[C@H]2N)OC[C@]1(C)O`, the Activity entry in assay [2] is “Dose-Dependent Effect”; in assay [5] it was 1.71%. The Ratio in assay [3] came out at 4.68; in assay [1] it was 6.01; in assay [4], 4.5.
Take `O=C(O)c1cccc(-c2noc(-c3ccccc3F)n2)c1`: the result in assay [8] was Active.
Regarding `CCCCCCC(=O)NC[C@H](N)C(=O)N[C@H](CC(=O)NN(C)CC(=O)O)[C@H]1C[C@H]1CN`, the Ratio in assay [1] is 1.38.
In the case of `Nc1nc(N)c2nc[nH]c2n1`, in assay [2], the Activity result was “Dose-Dependent Effect”.
Turning to `CN(CC(=O)O)NC(=O)C[C@H](N)C[C@@H](O)CN`, the values for the Ratio in assay [3], in assay [1] and in assay [4] were 0.91, 1.55 and 1.31, respectively.
